The source of these data is US7098304B1, “Assay for the diagnosis of schizophrenia based on a new peptide” (Yeda Research and Development Co. Ltd., priority 1998, dated 2006).

Assay [1] deals with SDAs as compared to NSDAs. As to the kind of experiment: Binding activity of peptides line-blotted onto PVDF to SDAs as compared to NSDAs. Details: species or system human; key to Activity: showed a substantially higher binding activity to SDAs as compared to their binding to NSDAs (indicated as YES in the table); No: showed no significant differences in their binding to samples from schizophrenic and non-schizophrenic individuals (designed as no in the table). The following applies: for Activity: binding to SDAs versus NSDAs. How it is done:
(§1) 1. Platelets and Anti-Platelet Autoantibodies Venous blood (20 ml) was drawn with heparin as anticoagulant from patients and control subjects. Platelet rich plasma (PRP) was obtained by centrifugation (100 g for 20 mins) at room temperature. Plasma free platelets were obtained by washing them three times with phosphate buffered saline (PBS) supplemented with 10 ml mM EDTA as anticoagulant (4000 g; 15 mins; 4° C.). For the isolation of anti-platelet antibodies, the platelets were incubated with 0.1 M glycine/10 mM EDTA, pH 2.8, for 10 min. at room temperature and then centrifuged (4000 g; 15 min; 4° C.). The supernatant containing the anti-platelet antibodies, was neutralized with saturated Na2PO4 solution and stored at −20 until use. 2. Preparative Isoelectric Focusing
(§2) The fractions were analyzed for immuno-reactivity by polyacrylamide (10%) gel electrophoresis, blotting the proteins onto PVDF membranes and probing the membrane with 1 ml auto-antibodies in 50 ml incubation buffer. Anti-human Fc conjugated to horseradish peroxidase (goat) from SIGMA (1:500 dilution) and Fast-DAB™ (SIGMA) or 4-Chloro-naphthol (SIGMA) were used as color reagent in order to detect bound human anti-platelet antibodies.
(§3) Various peptides were synthesized on Abimed 522 at a 10 micromol scale by Eurosequence b.v. Peptides were routinely dissolved in 1 ml water/DMF/DMSO (1:1:1;v/v/v). Peptides were line-blotted onto PVDF membranes and tested for immuno-reactivity as described above.
Based on the sequence of the epitope identified in the digested proteins, a number of peptides were synthesized by the method described in 1.8 above. The synthesized peptides were then evaluated for their binding activity to SDAs as compared to NSDAs as described above.

Assay [2] relates to NSDAs (non-schizophrenic derived antibodies). The assay can be described thus: Reactivity of proteins to NSDAs (platelet autoantibodies from control non-schizophrenic individuals), blot with anti-human Fc-HRP. As to conditions: number of NSDA samples that reacted positively with the enzyme, of 8 controls. The assay is classed as binding. How it is done:
as §1, §2
(§4) Every fifth fraction (0.1 ml) was dot blotted onto PVDF membranes using the DotBlot device (96 wells) from BioRad. Immuno-reactive fractions were then detected as described above (1.3)
(§5) The binding activity of the above two enzymes was then tested by reacting them with SDAs (prepared from samples obtained from schizophrenic patients) and to NSDA (prepared from control non-schizophrenic individuals).

Assay [3] relates to SDAs (schizophrenic derived antibodies). The assay can be described thus: Reactivity of proteins to SDAs (platelet autoantibodies from schizophrenic patients), blot with anti-human Fc-HRP. The format is binding. As to conditions: number of SDA samples that reacted positively with the enzyme, of 8 patients. On the procedure:
as §1, §2, §4, §5

Assay [4] relates to NSDA in plasma samples from non-schizophrenic individuals. The assay can be described thus: Binding of peptide to plasma samples from non-schizophrenic individuals. Set-up: species or system human. As to conditions: plasma samples of fifteen non-schizophrenic individuals, FIG. 2B. On the procedure: as §2, §3
(§6) The capability of Peptide 14 (SEQ ID NO: 3) to bind SDA in plasma samples obtained from schizophrenic patients was then tested. […] Peptide 14 (SEQ ID NO: 10) was used as a negative control.

The test system of assay [5] is PAAs obtained from non-schizophrenic individuals. As to the kind of experiment: Binding of peptide to isolated PAAs from non-schizophrenic individuals. As to conditions: isolated PAAs from eight different non-schizophrenic individuals, FIG. 1B. Set-up: species or system human. How it is done:
as §1, §2
(§7) Various peptides were synthesized on Abimed 522 at a 10 micromol scale by Eurosequence b.v. Peptides were routinely dissolved in 1 ml water/DMF/DMSO (1:1:1;v/v/v). […]

Assay [6] relates to PAAs obtained from schizophrenic patients (SDA). As to the kind of experiment: Binding of peptide to isolated PAAs from schizophrenic patients. Details: species or system human. How it is done: as §1, §2, §7
Assay [7] relates to SDA in plasma samples obtained from schizophrenic patients. As to the kind of experiment: Binding of peptide to plasma samples from schizophrenic patients. The following applies: plasma samples of five schizophrenic patients, FIG. 2A. Details: species or system human. On the procedure:
as §2, §3, §6

Turning to “2 (SGETEDTFIADLVVGLCTGQIKTGAPCR; being the immunologically active epitope) [compound 2]”, the Activity entry in assay [1] is reported as “YES”.

For the substance “3 (LVVGLCTCQIKTGPAC; peptide capable of binding antibodies that are found in elevated levels in body fluids of schizophrenic patients.) [compound 3]”, the Activity entry in assay [1] is “YES”.

In the case of “4 (IADLVVGLCTGQIKTGAPCR; peptide capable of binding antibodies that are found in elevated levels in body fluids of schizophrenic patients.) [compound 4]”, in assay [1], the Activity result was “YES”.

“5 (ADLVVGLCTGQIKTGAPCR; peptide capable of binding antibodies that are found in elevated levels in body fluids of schizophrenic patients.) [compound 5]”: the Activity entry in assay [1] is recorded as “YES”.

Consider “6 (DLVVGLCTGQIKTGAPCR; peptide capable of binding antibodies that are found in elevated levels in body fluids of schizophrenic patients.) [compound 6]”, for which, in assay [1], the Activity entry is listed as “YES”.

Regarding “7 (LVVGLCTGQIKTGAPCR; peptide capable of binding antibodies that are found in elevated levels in body fluids of schizophrenic patients.) [compound 7]”, in assay [1], the Activity result was “YES”.

Consider “8 (LVVGLCTGQIKTGPACR; peptide capable of binding antibodies that are found in elevated levels in body fluids of schizophrenic patients.) [compound 8]”, for which, in assay [1], the Activity entry is recorded as “YES”.

For “9 (LVVGLCTPQIKTGPACR; peptide capable of binding antibodies that are found in elevated levels in body fluids of schizophrenic patients.) [compound 9]”, the Activity result in assay [1] is recorded as “YES”.

Regarding “10 (SGETEDTFIADLVVGLCTGQ; peptide capable of binding antibodies that are found in elevated levels in body fluids of schizophrenic patients.) [compound 10]”, the Activity result in assay [1] was “No”.

With “11 (VVGLCTGQIKTGAPCR; peptide capable of binding antibodies that are found in elevated levels in body fluids of schizophrenic patients.) [compound 11]”, the Activity result in assay [1] is “No”.

With “12 (CTGQIKTGAPCR; peptide capable of binding antibodies that are found in elevated levels in body fluids of schizophrenic patients.) [compound 12]”, the Activity entry in assay [1] is listed as “No”.

As for “13 (LVVGLCTGQIKTGAPC; peptide capable of binding antibodies that are found in elevated levels in body fluids of schizophrenic patients.) [compound 13]”, in assay [1], the Activity entry is “No”.

For “15 (LVVGLCTGQIKTGPAC; peptide capable of binding antibodies that are found in elevated levels in body fluids of schizophrenic patients.) [compound 15]”, in assay [1], the Activity entry is “No”.

For “G-3-P-Dehydrogenase from chicken: glyceraldehyde-3-phosphate dehydrogenase (G3PD) enzyme from chicken”, the “Controls (n = 8) Positive” value in assay [2] is on record as 2/8. In assay [3], the “Patients (n = 8) Positive” value was 7/8.

Regarding “G-3-P-Dehydrogenase from human: glyceraldehyde-3-phosphate dehydrogenase (G3PD) enzyme from human”, in assay [2], the “Controls (n = 8) Positive” value was 1/8. Moreover, in assay [3], the “Patients (n = 8) Positive” value is reported as 7/8.

With “G-3-P-Dehydrogenase from pig: glyceraldehyde-3-phosphate dehydrogenase (G3PD) enzyme from pig”, in assay [2], the “Controls (n = 8) Positive” value was 1/8. In addition, in assay [3], the “Patients (n = 8) Positive” value is reported as 8/8.

As for “LVVGLCTCQIKTGPAC (peptide capable of binding antibodies that are found in elevated levels in body fluids of schizophrenic patients.) [SEQ ID NO: 3]”, in assay [4], the “plasma samples of non-schizophrenic individuals whose NSDA was not bound” value is “fourteen out of fifteen”. Also, the “binding to PAAs from non-schizophrenic individuals” value in assay [5] is given as “did not bind”. The “ranking of binding to antibodies found in high levels in schizophrenic patients” value in assay [1] (among the synthesized peptides) is given as “most capable of binding”. Further, in assay [1], the Activity entry was “No”. The “PAAs from schizophrenic patients positively bound” value in assay [6] (isolated PAAs from eight different schizophrenic patients, FIG. 1A) is “seven out of eight”. In addition, the “binding activity to SDA, dimer form versus non-dimer form” value in assay [6] (ring via two cysteins and dimer via free cystein after overnight in water/DMF/DMSO) was “the dimer form of the peptide was much more active in binding SDAs than the non-dimer form”. In assay [7], the “SDA in plasma of schizophrenic patients positively bound” value is “four out of five”.

As to “SGETEDTFIADLVVGLCTGQIKTGAPCR (being the immunologically active epitope) [SEQ ID NO: 2]”, the “immunological activity of peptide from enzymatic digest of Enolase” value in assay [1] (binding SDAs to a higher extent than NSDAs, amino acids 372-399) is given as “immunologically active”.
